From patent US20230065371A1, “PROCESS FOR MANUFACTURING SOLID NEUTRAL AMINO ACID SALTS OF POLYUNSATURATED FATTY ACIDS” (SILICYCLE INC., priority 2020, published 2023)

Test: Oxidative status / stability (PV, AV, Totox; CDR FoodLab Junior analyzer), storage with closed lids at room temperature
Type: physicochemical
Details: for TOTOX: Totox=2*PV+AV
Procedure: The final product in powder form is isolated by evaporating said first and second organic solvents and water from the reaction mixture to recover said basic amino acid salts of PUFAs. Preferably, said evaporation step is carried under reduced pressure between about 0° C.-70° C. depending on the properties of the equipment used. The oxidative status of the obtained final product described herein is quantified by peroxide value (PV), anisidine value (AV) and Totox value. PV is a measure of the level of the primary oxidation products (lipid hydroperoxides) in the product, which is specified in milliequivalents O2 per kg of sample, while the AV is an unspecific measure of saturated and unsaturated carbonyl compounds. Totox is calculated by the equation Totox=2*PV+AV.
The comparison of oxidative status of amino acid salts of omega-3, starting material in ester form and fish oil in free acid form are assessed by measuring the PV and AV, then all the samples are subjected to the same oxidizing condition over a certain period of time, followed by the measuring PV and AV of the samples. The oxidizing conditions are selected from one of them as below: 1) Storage in closed containers at atmospheric condition for 7 months; or 2) Storage in loose closed containers exposed to air at 40° C. for 1 month.
Food Lab Analyzer: Among several techniques known in the art for determining the oxidative levels of a sample. The CDR FoodLab® Junior analyzer is used herein for determining PV and AV. The procedures are as described below:
The solid product 0.5 g was dissolved in 2 ml of MeOH and HCl solution with the ratio of 1:10 (v/v). The mixture was stirred for 5 minutes, followed by the addition of 5 ml of water. The mixture was extracted with 3 ml of hexane containing 100 ppm butylhydroxytoluene (BHT). The organic layer was dried over MgSO4, filtrated and evaporated under reduced pressure at the temperature of 0-70° C. to get the fish oil in free acid form, which is evaluated with the CDR FoodLab® Junior analyzer to get anisidine and peroxide values using the CDR FoodLab® Junior analyzer.
The molar ratio of EPA, NaOH and glycine was 1:1:1. The mixture was stirred at atmospheric condition (i.e. atmospheric pressure and room temperature) for 5 minutes to obtain a suspension solution. 100 mL of acetonitrile was added to further precipitate the glycine salt. […] About 8 g of EPA-gly was stored in a 20 ml of clear vial with a diameter of 27 mm, which was placed with closed lids on the bench at room temperature for the stability examination for 60 days.

[1] = Table 1, time 60 d, closed lids, room temperature
[2] = salt as generated, after roughing pump for 1 day

Row | Compound | AV (Table 1, time 1 d) | PV (Table 1, time 1 d) | AV [1] | PV [1] | TOTOX [1] | PV [2] | TOTOX (Table 1, time 1 d) | AV [2]
1 | CC/C=C\C/C=C\C/C=C\C/C=C\C/C=C\C/C=C\CCC(=O)O.NCC(=O)O [DHA-gly, glycine salt of docosahexaenoic acid] | >100 A/g | 9.71 meq O2/Kg | 7.4 A/g | 1.92 meq O2/Kg | 11.24 | 9.71 meqO2/kg | – | –
2 | CC/C=C\C/C=C\C/C=C\C/C=C\C/C=C\CCCC(=O)O.NCC(=O)O [EPA-gly, glycine salt of eicosapentaenoic acid] | 14.6 A/g | 29.9 meq O2/Kg | <0.5 A/g | 1.19 meq O2/Kg | 2.38 | 29.9 meqO2/kg | 74.4 | 14.6 A/g
